Results published in patent US8399206B2, “Methods for diagnosis, prognosis and methods of treatment” (Nodality, Inc., priority 2008, dated 2013).

Tests used:
Format in all cases: cell-based, human
AML blasts = assay: SCNP / phospho-flow modulated signaling assay, AML study No. 1 (PBMC at diagnosis, CR vs NR)
From the text: The present illustrative example represents how to analyze cells in one embodiment of the present invention. There are several steps in the process, such as the stimulation step, the staining step and the flow cytometry step. The stimulation step of the phospho-flow procedure can start with vials of frozen cells and end with cells fixed and permeabilized in methanol. Then the cells can be stained with an antibody directed to a particular protein of interest and then analyzed using a flow cytometer.
Frozen cells are thawed in a 37° C. water bath and gently resuspended in the vial and transferred to the 15 mL conical tube. The 15 mL tube is centrifuged at 930 RPM (200×g) for 8 minutes at room temperature. The supernatant is aspirated and the pellet is gently resuspended in 1 mL media A. The cell suspension is filtered through a 70 um cell strainer into a new 15 mL tube. The cell strainer is rinsed with 1 mL media A and another 12 ml of media A into the 15 mL tube. The cells are mixed into an even suspension. A 20 μL aliquot is immediately removed into a 96-well plate containing 180 μL PBS+4% FBS+CD45 Alexa 700+PI to determine cell count and viability post spin. After the determination, the 15 mL tubes are centrifuged at 930 RPM (200×g) for 8 minutes at room temperature. The supernatant is aspirated and the cell pellet is gently resuspended in 4 mL PBS+4 μL Amine Aqua and incubated for 15 min in a 37° C. incubator. 10 mL RPMI+1% FBS is added to the cell suspension and the tube is inverted to mix the cells. The 15 mL tubes are centrifuged at 930 RPM (200×g) for 8 minutes at room temperature. The cells are resuspended in Media A at the desired cell concentration (1.25×10^6/mL). For samples with low numbers of cells (<18.5×10^6), the cells are resuspended in up to 15 mL media. For samples with high numbers of cells (>18.5×10^6), the volume is raised to 10 mL with media A and the desired volume is transferred to a new 15 mL tube, and the cell concentration is adjusted to 1.25×10^6 cells/ml. 1.6 mL of the above cell suspension (concentration at 1.25×10^6 cells/ml) is transferred into wells of a multi-well plate. From this plate, 80 ul is dispensed into each well of a subsequent plate. The plates are covered with a lid (Nunc) and placed in a 37° C. incubator for 2 hours to rest.
A concentration for each stimulant that is five folds more (5×) than the final concentration is prepared using Media A as diluent. 5× stimuli are arrayed into wells of a standard 96 well v-bottom plate that correspond to the wells on the plate with cells to be stimulated.
Adding the stimulant: The cell plate(s) are taken out of the incubator and placed in a 37° C. water bath next to the pipette apparatus. The cell plate is taken from the water bath and gently swirled to resuspend any settled cells. With pipettor, the stimulant is dispensed into the cell plate and vortexed at “7” for 5 seconds. The deep well plate is put back into the water bath.
Adding Fixative: 200 μl of the fixative solution (final concentration at 1.6%) is dispensed into wells and then mixed on the titer plate shaker on high for 5 seconds. The plate is covered with foil sealer and incubated in a 37° C. water bath for 10 minutes. The plate is spun for 6 minutes at 2000 rpm at room temperature. The cells are aspirated using a 96 well plate aspirator (VP Scientific). The plate is vortexed to resuspend cell pellets in the residual volume. The pellet is ensured to be dispersed before the Methanol step (see cell permeabilization) or clumping will occur.
Cell Permeabilization: Permeability agent, for example methanol, is added slowly and while the plate is vortexing. To do this, the cell plate is placed on titer plate shaker and made sure it is secure. The plate is set to shake using the highest setting. A pipetter is used to add 0.6 mls of 100% methanol to the plate wells. The plate(s) are put on ice until this step has been completed for all plates.

AML BMMC leukemic blasts = assay: SCNP modulated signaling assay, AML study No. 2 (BMMC, CR vs NR, clinical sub-groups)
Method: Two independent sets of cryopreserved samples were analyzed sequentially. The first set consisted of 35 peripheral blood mononuclear cell (PBMC) samples derived from AML patients. The second set consisted of 134 cryopreserved bone marrow mononuclear cell (BMMC) samples derived from AML patients. These samples were the same samples used in the previous examples. Sample inclusion criteria required collection prior to initiation of induction chemotherapy, AML classification by the French-American-British (FAB) criteria as M0 through M7 (excluding M3) and availability of clinical annotations.
In the first study, induction chemotherapy consisted of at least one cycle of standard cytarabine-based induction therapy (i.e. daunorubicin 60 mg/m^2×3 days, cytarabine 100-200 mg/m^2 continuous infusion×7 days); responses were measured after one cycle of induction therapy. In the second study, cytarabine (200 mg/m^2 to 3 g/m^2) was used in combination with an anthracycline (daunorubicin or idarubicin) or an additional anti-metabolite (e.g. fludarabine or troxacitabine), and sometimes, an experimental agent (Table 16). […] Standard clinical and laboratory criteria were used for defining complete response (CR) in both studies. […] Classified as “CRp,” these samples were included in the CR group for all primary analysis. The univariate analyses were also repeated with the CRp patients classified into the NR sample group for sensitivity analysis.
Cyropreserved samples were thawed at […], washed and centrifuged in PBS, 10% FBS and 2 mM EDTA. The cells were re-suspended, filtered to remove debris and washed in RPMI cell culture media, 1% FBS, then stained with Live/Dead Fixable Aqua Viability Dye to distinguish non-viable cells. The cells were then re-suspended in RPMI, 1% FBS, aliquoted to 100,000 cells/condition and rested for 1-2 hours at 37° C. prior to SCNP assays. Each condition included two to five phenotypic markers for cell population gating (eg, CD45, CD33), up to three intracellular stains or up to three additional surface markers or control antibodies for an eight-color flow cytometry assay.
Functional assays were performed as previously described. Cells were incubated with modulators (Table 18), at 37° C. for 3-15 minutes, fixed with 1.6% paraformaldehyde (final concentration) for 10 minutes at 37° C., pelleted and permeabilized with 100% ice-cold methanol and stored at −80° C.
Data was acquired using FACS DIVA software on both LSR II and CANTO II Flow Cytometers (BD). For all analyses, dead cells and debris were excluded by forward scatter (FSC), side scatter (SSC), and Amine Aqua Viability Dye measurement. Leukemic cells were identified as cells that lacked the characteristics of mature lymphocytes (CD45^++, CD33^−) and that fit the CD45 and CD33 versus right-angle light-scatter characteristics consistent with myeloid leukemia cells.
The median fluorescence intensity (MFI) was computed for each node from the fluorescence intensity levels for the cells in the myeloid population. The MFI values were then used to compute a variety of metrics by comparing them to baseline or background values, including the unmodulated condition, cellular autofluorescence and antibody isotype controls. The following metrics were computed: • 1. Basal MFI (“Basal”)=log2(MFIUnmodulated Stained)−log2(MFIGated Unstained (Autofluoresence)), designed to measure the basal levels of a certain protein under unmodulated conditions. • 2.

[1] = tested on: pediatric AML leukemic blasts; assay: SCNP assay on pediatric AML bone marrow samples, POG trial 9421 (Example 11); conditions: NR samples
Method: SCNP assays were performed on 77 bone marrow samples from pediatric AML patients enrolled in POG trial 9421 of which 67 were evaluable/had sufficient data for analysis and were enriched for non-responders (NR). 80 combinations of modulators and intra-cellular proteins (signaling nodes) were investigated including nodes involved in the phosphoinositide 3-kinase (PI3K), Janus Kinases (JAK), signal transducers and activators of transcription (STAT) and the DNA damage response and apoptosis pathways. Basal and modulated protein levels in leukemic blasts were measured using several metrics (e.g., fold change, total level of phosphorylation, and a rank based method Uu measuring the proportion of cells that shift from baseline), and nodes were examined in univariate and multivariate analyses for their ability to discriminate between AML responsive (CR, n=46) and non-responsive (NR, n=21) to anthracycline/cytarabine-based induction therapy. Furthermore, nodes were examined for their ability to identify patients likely to be in complete continuous remission (CCR, n=23) or relapse (CR-Rel, n=23) within 4 years.

AML myeloblasts (BMMC) = assay: SCNP of paired diagnosis and relapse AML BMMC and independent diagnostic set (Example 5); conditions: paired diagnosis samples of Patients 1 and 2
From the text: All AML bone marrow mononuclear cells (BMMC) were derived from the bone marrow (BM) of AML patients treated at MD Anderson Cancer Center (MDACC) between September 1999 and September 2006. Clinical data were de-identified in compliance with Health Insurance Portability and Accountability Act regulations. Patient/sample inclusion criteria required a diagnosis of French-American-British (FAB) classification of M0 through M7 AML (excluding M3) AML, collection prior to therapy initiation and at least 50% viability upon sample thaw. For the identification of chemoresistant signaling profiles, two longitudinally paired BMMC samples at diagnosis (collection prior to the initiation of induction chemotherapy) and first relapse, were examined. An independent test set comprised of 47 BMMC samples collected at diagnosis from AML patients with a disease response of CR after high dose cytarabine based chemotherapy was used to assess the ability of the identified signaling profiles to predict disease relapse. Healthy, unstimulated BMMC (n=2) were purchased from a commercial source (All Cells) to serve as a control. All samples underwent fractionation over Ficoll-Hypaque prior to cryopreservation with 90% fetal bovine serum and 10% dimethyl sulfoxide and storage in liquid nitrogen.
The SCNP assay measured response to growth factors and cytokines involved in hematopoietic progenitor or myeloid biology (SCF, FLT3L, G-CSF, IL-27), drug transporter (ABCG2, MRP-1) and chemokine receptors (CXCR4) associated with adverse disease prognosis in AML, and the c-Kit growth factor receptor for SCF. The SCF and FLT3L-mediated PI3K/Akt and MAPK pathway is important for maintaining the hematopoietic stem cell pool; G-CSF-mediated Jak/STAT pathway activation is important for neutrophilic differentiation of hematopoietic progenitor cells; interleukin (IL)-27 mediated Jak/STAT pathway activation is important in regulating proliferation and differentiation of hematopoietic stem cells; CXCR4 expression is associated with disease relapse and decreased survival; and drug transporter expression levels (i.e. ABCG2 and MRP-1) are known to be associated with adverse prognosis in AML. All together, approximately 20 signaling nodes were evaluated in each sample.
SCNP assays were performed as described previously. Cryopreserved samples were thawed at 37° C. and washed once in warm PBS containing 10% FBS (HyClone, Waltham, Mass., USA) and 2 mM EDTA. […] The cells were re-suspended in RPMI containing 1% FBS, aliquoted to 100,000 cells/condition and rested for 1-2 hours at 37° C. […]

[2] = Study No. 1 sensitivity analysis, CR samples
[3] = Study No. 1 sensitivity analysis, NR samples incl. CRp

OO [H2O2, hydrogen peroxide, reference compound]
phosphorylated PLCγ2 and SLP-76 upon H2O2 treatment (AML blasts; CR patients versus NR patients): attained higher levels of phosphorylated PLCγ2 and SLP-76 upon H2O2 treatment | p-Akt levels upon H2O2 treatment (AML blasts; NR vs CR patient blasts): higher levels of p-Akt in NR patients versus CR patients | p-AKT and p-PLCγ2 following H2O2 treatment (AML BMMC leukemic blasts; NR samples, older patient cohort (>=60 years)): increases in p-AKT and p-PLCγ2 | Mean Value of CRs, p-Akt Fold (AML BMMC leukemic blasts; Study No. 2, all patients, CR samples): 0.68 | Mean Value of NRs, p-Akt Fold (AML BMMC leukemic blasts; Study No. 2, all patients, NR samples): 0.91 | H2O2 and FLT3L responses, NR vs CR (AML BMMC leukemic blasts; patients younger than 60 years old (so in the source)): NRs have higher H2O2 and FLT3L responses than CRs | p-Akt and p-PLC gamma levels with hydrogen peroxide as modulator [1]: lower p-Akt and p-PLC gamma levels in NR samples

SCF: stem cell factor
Mean Value of CRs, p-Akt Fold (AML blasts; [2]): 0.09 | Mean Value of CRs, p-CREB Total Phospho (AML blasts; [2]): 1.32 | Mean Value of CRs, p-Erk Fold (AML blasts; [2]): −0.06 | Mean Value of CRs, p-Plcγ2 Total Phospho (AML blasts; [2]): 1.80 | Mean Value of NRs, p-Akt Fold (AML blasts; [3]): 0.56 | Mean Value of NRs, p-CREB Total Phospho (AML blasts; [3]): 1.92 | Mean Value of NRs, p-Erk Fold (AML blasts; [3]): 0.11 | Mean Value of NRs, p-Plcγ2 Total Phospho (AML blasts; [3]): 2.79 | responsive cells in diagnostic AML bone marrow samples (AML myeloblasts (BMMC)): ~1%

B1: G-CSF: granulocyte colony-stimulating factor (protein, UniProt P09919 31-207, looked up)
Granulocyte …: TPLGPASSLPQSFLLKCLEQVRKIQGDGAALQEKLVSECATYKLCHPEELVLLGHSLGIPWAPLSSCPSQALQLAGCLSQLHSGLFLYQGLLQALEGISPELGPTLDTLQLDVADFATTIWQQMEELGMAPALQPTQGAMPAFASAFQRRAGGVLVASHLQSFLEVSYRVLRHLAQP
increase in p-Akt and p-S6 levels (AML blasts; Staurosporine Resistant category vs other apoptosis categories): greatest increase in p-Akt and p-S6 levels | Mean Value of CRs, p-Stat3 Fold (AML blasts; [2]): 0.60 | Mean Value of CRs, p-Stat3 Total Phospho (AML blasts; [2]): 1.40 | Mean Value of CRs, p-Stat5 Fold (AML blasts; [2]): 0.33 | Mean Value of NRs, p-Stat3 Total Phospho (AML blasts; [3]): 2.74 | Mean Value of NRs, p-Stat5 Fold (AML blasts; [3]): 1.15 | Mean Value of NRs, p-Stat3 Fold (AML blasts; Study No. 1 sensitivity analysis, NR samples incl. CRp, negative = down regulation): 1.52 | Jak/Stat response (G-CSF: p-Stat3, p-Stat5; GM-CSF: p-Stat5) (AML blasts; all samples of the Staurosporine Resistant apoptosis category): Robust Jak/Stat responses | responsive cells in diagnostic AML bone marrow samples (AML myeloblasts (BMMC)): ~1%
